This is an account of results in patent US9598386B2, “Immunomodulatory compounds” (University of Strathclyde, priority 2012, dated 2017).

The test system of data set [1] is bone marrow-derived mast cells (BMM). Description: Mast cell cytokine release after FcεRI crosslinking. Type of data set: cell-based. As to conditions: pre-treated during IgE sensitisation, 24 h after FcεRI crosslinking; FIG. 2. Here is the method: (§1) Peritoneal-derived mast cells (PDMC; panels A & D) or bone marrow-derived mast cells (BMM; B, C, E & F) were pre-treated with the indicated concentrations of S3 and S5 (μg/ml) during the IgE sensitisation phase and then degranulation measured 1 h (A & D) following crosslinking of the IgE-bound FcεRI receptors (XL) or not (Basal). Alternatively TNFα (B & E) or IL-6 (C & F) release was measured 24 h following FcεRI crosslinking. Data are presented as means±SD where n=3 and analysis is by 1-way ANOVA and Newman-Keuls post test where ***p<0.001.
(§2) S3 and S5 were also tested for their effects on another immune system cell type, the mast cell. Similar to macrophages, activation of mast cells for example via the high-affinity receptor for IgE results in degranulation, resulting in release of inflammatory mediators, and secretion of various cytokines.

In data set [2] the test system is mouse model of asthma, ovalbumin-induced airway hypersensitivity. Put plainly: Ovalbumin-induced airway hypersensitivity (OAH) mouse model of asthma. Type of data set: in vivo. The conditions noted are these: for lung pathology (H & E staining of lung tissue) / eosinophil influx into the lungs (BALF): prophylactic treatment; for lung pathology (H & E staining of lung tissue): FIG. 3A; for eosinophil influx into the lungs (BALF): FIG. 3B; for neutrophil influx into the lungs (BALF): therapeutic treatment, FIG. 3C. The method, then:
As a consequence of the mast cell findings S3 and […] were tested in a mouse model of asthma, ovalbumin-induced airway hypersensitivity (OAH). As can be shown in FIG. 3, both sulfones are able to inhibit infiltration of disease-causing eosinophils into the lungs and also overall lung pathology.

Data set [3] deals with DBA/1 mice undergoing CIA. Put plainly: Collagen-induced arthritis (CIA) mouse model of rheumatoid arthritis. Type of data set: in vivo. The conditions noted are these: prophylactic treatment, 1 μg/dose at d-2, d0 and d21, versus PBS; FIG. 1. Here is the method: DBA/1 mice undergoing CIA (PBS) were treated with SMAs S3 (1 μg/dose; S3-1) and S5 (1 μg/dose; S5-1) at d-2, d0 and d21 and monitored every second day for (A) articular score; (B) paw swelling; (C) incidence of CIA (articular score>2) and (D) incidence of severe pathology (articular score >4). Data in A & B are presented as mean values±SEM where PBS, n=28, S3, n=14 and S5, n=13 individual mice, except at d33 and d35 where PBS, n=14, S3, n=7 and S5, n=7 individual mice, and analysis was by Mann-Whitney test and *p<0.05, **p<0.01 and ***p<0.001 where blue * and black * represent PBS versus S3-1 and S5-1, respectively.

Data set [4] deals with Peritoneal-derived mast cells (PDMC). Put plainly: Mast cell degranulation after FcεRI crosslinking. It counts as cell-based. As to conditions: pre-treated during IgE sensitisation, measured 1 h after FcεRI crosslinking; FIG. 2. Here is the method:
as §1, §2

Structures can show the parent of a compound that is named as a salt.

For `C[N+](C)(C)CCS(=O)(=O)Cc1ccc(Br)cc1` (as salt: methane sulfonate) [S1, N,N.N-trimethyl-2-1(4-bromobenzyl)sulfonyl{ethanaminiummethane sulfonate], the melting point lay within 187 to 188 °C. For the molecule `CN(C)CCS(=O)(=O)Cc1ccc(Br)cc1` [S3, N-{2-[(4-Bromobenzyl)sulfonyl]ethyl}-N,N-dimethylamine], the melting point lay in the range of 58 to 60 °C. For the same molecule, in data set [1], the “secretion of IL-6 by mast cells” value was “inhibiting secretion” and the “secretion of TNF-α by mast cells” value is recorded as “inhibiting secretion”. Moreover, in data set [2], the “lung pathology (H & E staining of lung tissue)” value is “inhibits lung pathology”, the “eosinophil influx into the lungs (BALF)” value was “inhibits” and the “neutrophil influx into the lungs (BALF)” value is reported as “inhibits neutrophil influx”. Besides, the “development of arthritis (articular score, paw swelling, incidence)” value in data set [3] was “significantly suppressed the development of arthritis”. In data set [4], the mast cell degranulation result is given as “suppressing degranulation”. `Cc1ccc(CS(=O)(=O)CCN(C)C)cc1` [S4, N,N-Di methyl-2-[(4-methylbenzyl)sulfonyl]ethanamine] had a melting point of 68 to 70 °C. `Cc1ccc(CS(=O)(=O)CC[N+](C)(C)C)cc1.[I-]` [S5, N,N,N-trimethyl-2-[(4-methylbenzyl)sulfonyl]ethanaminium iodide] registered a melting point of 212 to 214 °C. Also, in data set [1], the “secretion of IL-6 by mast cells” value is listed as “inhibiting secretion” and the “secretion of TNF-α by mast cells” value is given as “inhibiting secretion”. In data set [2], the “lung pathology (H & E staining of lung tissue)” value is reported as “inhibits lung pathology”, the “eosinophil influx into the lungs (BALF)” value is “inhibits” and the “neutrophil influx into the lungs (BALF)” value is given as “inhibits neutrophil influx”. In data set [3], the “development of arthritis (articular score, paw swelling, incidence)” value is reported as “significantly suppressed the development of arthritis”. For the same molecule, the mast cell degranulation result in data set [4] is given as “suppressing degranulation”. Turning to `Cc1ccc(CS(=O)(=O)CCN2CCCC2)cc1` [S7, 1-(2-[(4-Methylbenzyl)sulfonyl]ethyl)pyrrolidine], the melting point was in the range of 84 to 86 °C. `Cc1ccc(CS(=O)(=O)CC[N+]2(C)CCCC2)cc1.[I-]` [S8, 1-Methyl-1-{2-[(4-methylbenzyl)sulfonyl]ethyl}pyrrolidinium iodide] had a melting point of 214 to 216 °C. On the same count and under the same terms, next, `O=S(=O)(CCN1CCCC1)Cc1ccc(Br)cc1` [S9, 1-{2-[(4-bromobenzyl}sulfonyl]ethyl}pyrrolidine]: 90 to 92 °C; `C[N+]1(CCS(=O)(=O)Cc2ccc(Br)cc2)CCCC1.[I-]` [S10, 1-Methyl-1-{2-[(4-bromobenzyl)sulfonyllethyl]}pyrrolidinium iodide]: 196 to 198 °C. In turn, `Cc1ccc(CS(=O)(=O)CCCN2CCOCC2)cc1` [S19, 4-{3-[(4-methylbenzyl)sulfonyl]propyl}morpholine] gave a melting point of 92 to 93 °C. Still for that read-out and setting: next, `Cc1ccc(CS(=O)(=O)CCCN2CCCC2)cc1` [S20, 1-{3-[(4-Methylbenzyl)sulfonyl]propyl}-pyrrolidine]: 84 to 86 °C; `Cc1ccc(CS(=O)(=O)CCC[N+]2(C)CCOCC2)cc1.[I-]` [S22, 4-methyl-4-{3-[(4-methylbenzyl)sulfonyl]propyl}morpholin-4-ium iodide]: 181 to 183 °C. As for `O=S(=O)(CCN1CCOCC1)Cc1cccc(F)c1` [S25, 4-{2-[(3-Fluorobenzyl)sulfonyl]ethyl}morpholine], the melting point lay within 74 to 76 °C. The molecule `O=S(=O)(CCN1CCCC1)Cc1cccc(F)c1` [S26, 1-{2-[(3-Fluorobenzyl)sulfonyl]ethyl}pyrrolidine] had a melting point of 66 to 68 °C. In turn, `CN(C)CCS(=O)(=O)Cc1ccc(F)cc1` [S27, N-{2-[(4-Fluorobenzyl)sulfonyl]ethyl}-N,N-dimethylamine] had a melting point of 50 to 52 °C.

Consider `O=S(=O)(CCN1CCOCC1)Cc1ccc(F)cc1` [S28, 4-{2-[(4-Fluorobenzyl)sulfonyl]ethyl}morpholine], for which the melting point was 72 to 74 °C.

The molecule `O=S(=O)(CCN1CCCC1)Cc1ccc(F)cc1` [S29, 1-{2-[(4-Fluorobenzyl)sulfonyl]ethyl}pyrrolidine] came in with a melting point of 76 to 78 °C.

One may read the melting point as the temperature of the solid-liquid transition.
